The values below come from PubChem BioAssay AID624385 (Sanford-Burnham Center for Chemical Genomics, 2012).

The source made the active and inactive calls. How the calls were made is not given here.

In general, IC50 refers to the concentration needed to halve the response being measured.

This experiment deals with Small ubiquitin-related modifier 2 (Homo sapiens) (UniProt P61956). Kind of experiment: SUMO2–SIM peptide binding inhibitors, dose response, selectivity assay for SUMO1 interaction inhibitor project, biochemical, fluorescence polarization, uHTS hits (AID 624385). (In general: Polarisation of emitted light reports the rotation of a fluorescent probe.)
Small ubiquitin-related modifier 2 (Homo sapiens), sequence (P61956 whole entry, looked up): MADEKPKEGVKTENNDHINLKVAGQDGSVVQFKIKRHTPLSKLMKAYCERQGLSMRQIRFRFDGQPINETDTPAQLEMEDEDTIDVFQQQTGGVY

Turning to `N#CC(C(=O)Nc1cccc(Cl)c1)=C1Nc2ccccc2N1`, the IC50 is > 66 µM (inactive).

Consider `C[c-]1[c-](C)[c-](C)[c-](C)[c-]1C.[Fe].c1cc2nccc(N3CCCC3)[c-]2c1` (configuration not stated), for which the IC50 result is “inactive”.
